{"source": "patent US5773573A", "about": "“HIV peptides” (priority 1994, dated 1998)", "key": {"HIV p24 antigen": {"test_system": "HIV p24 antigen", "experiment": "p24Ag Assay on blood samples of HIV infected patient given HEP1", "assay_type": "in vivo", "conditions": "patient three", "description": "(§1) The objective of this study was to determine in an HIV infected patient if the induction of immunological tolerance to HEP1 could reduce immune activation and HIV infection. The design of the first clinical experiment was to orally administer HEP1 to the patient in daily 10 mg doses (the lower end of the preferred dose range). This was then followed approximately three months later with a subcutaneous administration of HEP1 at a higher dose of 140 mg. To assess the therapeutic benefit of HEP1, the following disease progression markers were measured by taking blood samples before, during and after each trial and determining: HIV levels by a p24 antigen assay, HIV infectivity by a cellular TCID assay and immune activation by quantitating levels of various lymphocytes.\np24Ag is a marker of HIV infection as well as a predictor of HIV disease progression. The p24Ag assay measures p24 antigen from the core of HIV and is an immunoassay using murine monoclonal antibody coated onto microwell strips. The assay detects HIV in plasma, serum or tissue culture medium. If present, the antigen binds to the antibody-coated microwells. The bound antigen is recognised by biotinylated antibodies to HIV which react with conjugated strepavidin-horseradish peroxidase. Colour develops from the reaction of the peroxidase with hydrogen peroxidase in the presence of tetramethylbenzidine (TMB) substrate. Specimens which are HIV p24Ag positive can be quantitated by setting up a standard curve using serial dilutions of the Antigen Reagent. The assay is not accurate below 30 picograms per ml.\n(§2) The following markers of HIV disease progression were assayed: p24Ag (the concentration of HIV p24 protein in picogram/ml in the blood), TCID (the infectivity of the HIV in the cells of blood sample measured by an in vitro cell culture assay in which a serial dilution of the sample was mixed with activated uninfected PBMC and the level of HIV infection determined by p24Ag assay), total white count (immune activation measured by the number of white cells per mm^3), CD4 (the number of CD4 positive cells per mm^3), CD8 (the number of CD8 positive cells per mm^3), NK (the number of Natural Killer cells per mm^3), Lymphocytes (the number of cells per mm^3), Monocytes (the number of cells per mm^3), and Granulocytes (the number of cells per mm^3). Normalised data was calculated by dividing each data point by the value of its data series on day 1 of the trail and multiplying by 100."}, "HIV": {"test_system": "HIV", "experiment": "Cellular TCID Assay on PBMC of HIV infected patient given HEP1", "assay_type": "in vivo", "conditions": "patient three; for TCID, normalised data (day 1 = 100): oral HEP1 10 mg daily day 2-22", "description": "as §1\nCellular TCID is a technique that measures the relative amount of viral load within cells. Within four hours of a sample being taken from the HIV infected patient, 10^6 viable PBMC from the sample were obtained by centrifugation of the anticoagulated blood over Ficoll-Hypaque lymphocyte separation medium. A serial dilution of the patients cells was set up in a 24 well plate in decreasing amounts (1:1, 1:4, 1:16, 1:64 and 1:256 and a negative control using 0.9 ml special media (RPMI-1640) supplemented with 15% fetal calf serum and 10% interleukin 2. Infected cells were then cocultivated with 10^6 PBMC derived from an uninfected human donor that had been stimulated for 24-48 hours with phytohaemagglutin (PHA) to activate the cells to make them susceptible to infection by HIV. The cocultures were subsequently monitored for the presence of p24 antigen in the supernatant fluid twice weekly for up to 14 days, during this period the plates were spun on days 4,7,11 and 14 and then a 50% medium change was performed. […]\nas §2"}, "[1]": {"conditions": "patient three"}, "[2]": {"conditions": "oral HEP1 10 mg daily day 2-22, day 1, before first dose"}, "[3]": {"conditions": "oral HEP1 10 mg daily day 2-22, day 7, during treatment"}, "[4]": {"conditions": "oral HEP1 10 mg daily day 2-22, day 28, after treatment"}, "[5]": {"conditions": "oral administration of HEP1 (FIG. 2)"}, "[6]": {"conditions": "orally administered HEP1 10 mg daily"}, "[7]": {"conditions": "single subcutaneous HEP1 injection in the abdominal wall"}}, "note": "Where two headings read alike, the source gives them in different places. Residues, ends and D or L forms follow the SMILES beside them."}
{"molecule": "CC(C)[C@H](NC(=O)[C@@H](NC(=O)[C@H](CCC(=O)O)NC(=O)[C@H](CCCNC(=N)N)NC(=O)[C@H](CCCNC(=N)N)NC(=O)[C@H](CCCCN)NC(=O)[C@H](CCCCN)NC(=O)[C@H](CCC(=O)O)NC(=O)[C@@H](N)[C@@H](C)O)[C@@H](C)O)C(=O)N[C@@H](CCC(=O)O)C(=O)N[C@@H](CCCNC(=N)N)C(=O)N[C@@H](CCC(=O)O)C(=O)N[C@@H](CCCCN)C(=O)N[C@@H](CCC(=O)O)C(=O)O", "note": "[HEP1, NH2 ThrGluLysLysArgArgGluThrValGluArgGluLysGluCOOH] (H-TEKKRRETVEREKE-OH)", "values": [{"measurement": "p24Ag", "setting": "HIV p24 antigen; [2]", "value": 71, "unit": "picogram/ml"}, {"measurement": "p24Ag, normalised data (day 1 = 100)", "setting": "HIV p24 antigen; [2]", "value": 100}, {"measurement": "p24Ag", "setting": "HIV p24 antigen; [3]", "value": 44, "unit": "picogram/ml"}, {"measurement": "p24Ag, normalised data (day 1 = 100)", "setting": "HIV p24 antigen; [3]", "value": 62}, {"measurement": "p24Ag", "setting": "HIV p24 antigen; [4]", "value": 38, "unit": "picogram/ml"}, {"measurement": "p24Ag, normalised data (day 1 = 100)", "setting": "HIV p24 antigen; [4]", "value": 54}, {"measurement": "HIV virus particles as measured by p24Ag levels, course", "setting": "HIV p24 antigen; [5]", "value": "decline"}, {"measurement": "persistence of the effect on p24Ag and TCID after treatment", "setting": "HIV p24 antigen; [6]", "value": 7, "unit": "days"}, {"measurement": "reduction of viral load as measured by p24Ag", "setting": "HIV p24 antigen; [6]", "value": 46, "unit": "%"}, {"measurement": "p24Ag", "setting": "HIV p24 antigen; single subcutaneous HEP1 dose on day 1, day-91, end of oral study", "value": 38, "unit": "picogram/ml"}, {"measurement": "TCID, normalised data (day 1 = 100)", "setting": "HIV; day 1, before first dose", "value": 100}, {"measurement": "TCID, normalised data (day 1 = 100)", "setting": "HIV; day 28, after treatment", "value": 6}, {"measurement": "HIV infectivity as measured by a TCID assay, course", "setting": "HIV; [5]", "value": "decline"}, {"measurement": "reduction of the infectivity of HIV as measured by TCID", "setting": "HIV; [6]", "value": 16, "unit": "X"}, {"measurement": "adverse reactions", "setting": "[1]; oral HEP1 10 mg daily day 2-22", "value": "no adverse reactions"}, {"measurement": "adverse reactions", "setting": "[1]; [7]", "value": "no other adverse reactions"}, {"measurement": "duration of stinging sensation after injection", "setting": "[1]; [7]", "value": "approximately 15 minutes"}]}
